# Target: T1, human ALK (Homo sapiens, UniProt Q9UM73)
# T1 construct: GST (N); purchased Invitrogen, Carlsbad, Calif; (or prepared by AstraZeneca); host or cells: insect cells
# Assay: ALK kinase mobility shift assay (Caliper LC3000)
# Type: biochemical
# Details: cumulative geometric means including test re-runs, some obtained since the priority filings; ATP 30 μM (Km) or 5 mM, not specified which; read-out: ALK Enzyme IC50 (μM)**
# Description: ALK kinase activity was determined by measuring the kinase's ability to phosphorylate a tyrosine residue within a peptide substrate using a mobility shift assay on a Caliper LC3000 reader (Caliper Life Sciences, Hopkinton, Mass.), which measures fluorescence of the phosphorylated and unphosphorylated substrate and calculates a ratiometric value to determine percent turnover.
# To measure ALK kinase activity, the ALK enzyme used was N-terminal GST-tagged, recombinant, human ALK, amino acids 1058-1620 (Genbank Accession number NP_004295) expressed in insect cells and activated in-vitro via autophosphorylation. This was either purchased from a commercially available source (Invitrogen, Carlsbad, Calif.) or prepared by AstraZeneca. The kinase was incubated with a FAM labeled SRCtide substrate (5FAM-GEEPLYWSFPAKKK-NH2, AnaSpec, Fremont, Calif.), 30 μM adenosine triphosphate (ATP, at Km concentration) or 5 mM ATP, 50 mM HEPES buffer (pH 7.3), 1 mM DTT, 0.01% Tween 20, 50 μg/ml BSA and 10 mM MgCl2 for 90 minutes at room temperature. After this time, the kinase reaction was stopped by adding quenching buffer containing final concentrations of 36 mM ethylenediaminetetraacetic acid (EDTA), 65 mM HEPES buffer (pH 7.3), 0.2% Coatin Reagent 3 (Caliper Life Sciences, Hopkinton, Mass.), and 0.003% Tween 20. The reaction was performed in 384 well microtitre plates and the reaction products were detected using the Caliper LC3000 Reader in the presence of separation buffer consisting of 100 mM HEPES (pH 7.3), 15.8 mM EDTA, 0.1% Coatin Reagent 3 (Caliper, Mass.), 0.015% Brij-35, 5% DMSO, and 5.6 mM MgCl2. The separation conditions set up on the Caliper LC3000 were −1.7 PSI, −400V upstream voltage, −2000V downstream voltage, 0.2 second sample sip, 45 second post sip, and 150 seconds final delay. The percentage of inhibition of ALK enzyme activity by compounds were measured based on Max signals (DMSO control) and Min signals (EDTA control) in the plates. Data was graphed and IC50s calculated by IDBS ActivityBase program.
# T1 sequence (Q9UM73 1058-1620): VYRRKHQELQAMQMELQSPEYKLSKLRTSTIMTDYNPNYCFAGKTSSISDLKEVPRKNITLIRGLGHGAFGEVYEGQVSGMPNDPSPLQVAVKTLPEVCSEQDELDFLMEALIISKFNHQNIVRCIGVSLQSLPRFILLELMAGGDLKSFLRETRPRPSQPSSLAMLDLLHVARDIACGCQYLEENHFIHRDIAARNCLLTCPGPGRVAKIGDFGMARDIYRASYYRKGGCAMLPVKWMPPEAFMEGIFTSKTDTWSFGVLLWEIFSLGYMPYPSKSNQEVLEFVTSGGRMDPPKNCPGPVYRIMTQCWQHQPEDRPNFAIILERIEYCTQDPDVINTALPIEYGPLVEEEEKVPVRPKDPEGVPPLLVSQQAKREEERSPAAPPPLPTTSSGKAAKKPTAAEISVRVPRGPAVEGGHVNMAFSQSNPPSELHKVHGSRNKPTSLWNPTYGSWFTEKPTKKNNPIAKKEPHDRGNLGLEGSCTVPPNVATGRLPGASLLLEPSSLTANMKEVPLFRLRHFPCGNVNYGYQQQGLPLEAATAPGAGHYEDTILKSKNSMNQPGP
row,IC50 [µM],Structure (SMILES)
1,0.02,"COc1cc(P2(=O)CCC(N)CC2)ccc1Nc1ncc(C)c(-c2c[nH]c3ccccc23)n1 (single isomer, unassigned) [Example 44, N-[4-(4-amino-1-oxidophosphinan-1-yl)-2-methoxyphenyl]-4-(1H-indol-3-yl)-5-methylpyrimidin-2-amine]"
2,0.061,"COc1cc(N2CCC(N)C(F)C2)ccc1Nc1ncc(Cl)c(-c2c[nH]c3ccccc23)n1 (single isomer, unassigned) [Example 45, (trans)-N-(4-(4-amino-3-fluoropiperidin-1-yl)-2-methoxyphenyl)-5-chloro-4-(1H-indol-3-yl)pyrimidin-2-amine]"
3,0.031,"COc1cc(N2CCC(N)C(F)C2)ccc1Nc1ncc(Cl)c(-c2c[nH]c3ccccc23)n1 (single isomer, unassigned) [Example 51, (cis)-N-(4-(4-amino-3-fluoropiperidin-1-yl)-2-methoxyphenyl)-5-chloro-4-(1H-indol-3-yl)pyrimidin-2-amine]"
4,0.021,"COc1cc(N2CCC(N(C)C)CC2)ccc1Nc1ncc(Cl)c(-c2c[nH]c3ccccc23)n1 [Example 12, 5-Chloro-N-(4-(4-(dimethylamino)piperidin-1-yl)-2-methoxyphenyl)-4-(1H-indol-3-yl)pyrimidin-2-amine]"

# More lines, now with the values behind:
row,Structure (SMILES),IC50 [µM]
1,"COc1cc(P2(=O)CCC(N)CC2)ccc1Nc1ncc(Cl)c(-c2c[nH]c3ccccc23)n1 (single isomer, unassigned) [Example 42, N-[4-(4-amino-1-oxidophosphinan-1-yl)-2-methoxyphenyl]-5-chloro-4-(1H-indol-3-yl)pyrimidin-2-amine]",0.083
2,"COc1cc(P2(=O)CCC(N)CC2)ccc1Nc1ncc(C)c(-c2c[nH]c3ccccc23)n1 (single isomer, unassigned) [Example 43, N-[4-(4-amino-1-oxidophosphinan-1-yl)-2-methoxyphenyl]-4-(1H-indol-3-yl)-5-methylpyrimidin-2-amine]",0.158
3,"COc1cc(N2CCC(N)C(F)C2)ccc1Nc1ncc(Cl)c(-c2c[nH]c3ccccc23)n1 (single isomer, unassigned) [Example 46, (trans)-N-(4-(4-amino-3-fluoropiperidin-1-yl)-2-methoxyphenyl)-5-chloro-4-(1H-indol-3-yl)pyrimidin-2-amine]",0.039
4,"COc1cc(N2CCC(N)C(F)C2)ccc1Nc1ncc(Cl)c(-c2c[nH]c3ccccc23)n1 (single isomer, unassigned) [Example 50, (cis)-N-(4-(4-amino-3-fluoropiperidin-1-yl)-2-methoxyphenyl)-5-chloro-4-(1H-indol-3-yl)pyrimidin-2-amine]",0.022
5,"COc1cc(N2CCC(N3CCN(C)CC3)CC2)ccc1Nc1ncc(F)c(-c2c[nH]c3ccccc23)n1 [Example 7, 5-Fluoro-4-(1H-Indol-3-yl)-N-(2-methoxy-4-(4-(4-methylpiperazin-1-yl)piperidin-1-yl)phenyl)pyrimidin-2-amine]",0.079

# Same assay, conditions: geometric means of multiple test runs, as presented in the priority filings; ATP 30 μM (Km) or 5 mM, not specified which; read-out: ALK Enzyme IC50 (μM)*
row,IC50 [µM],Structure (SMILES)
1,0.023,"CNC1CCN(c2ccc(Nc3ncc(Cl)c(-c4c[nH]c5ccccc45)n3)c(OC)c2)CC1 [Example 2, 5-Chloro-4-(1H-indol-3-yl)-N-(2-methoxy-4-(4-(methylamino)piperidin-1-yl)phenyl)pyrimidin-2-amine]"
2,0.052,"CNC1CCN(c2ccc(Nc3ncc(C)c(-c4c[nH]c5ccccc45)n3)c(OC)c2)CC1 [Example 4, 4-(1H-Indol-3-yl)-N-(2-methoxy-4-(4-(methylamino)piperidin-1-yl)phenyl)-5-methylpyrimidin-2-amine]"
3,0.03,"COc1cc(N2CCC(N)CC2)ccc1Nc1ncc(C)c(-c2c[nH]c3ccccc23)n1 [Example 5, N-(4-(4-Aminopiperidin-1-yl)-2-methoxyphenyl)-4-(1H-indol-3-yl)-5-methylpyrimidin-2-amine]"
4,0.058,"COc1cc(N2CCC(NC3CC3)CC2)ccc1Nc1ncc(Cl)c(-c2c[nH]c3ccccc23)n1 [Example 6, 5-Chloro-N-(4-(4-(cyclopropylamino)piperidin-1-yl)-2-methoxyphenyl)-4-(1H-indol-3-yl)pyrimidin-2-amine]"
5,0.086,"COc1cc(N2CCC(N(C)C)CC2)ccc1Nc1ncc(C)c(-c2c[nH]c3ccccc23)n1 [Example 11, N-(4-(4-(Dimethylamino)piperidin-1-yl)-2-methoxyphenyl)-4-(1H-indol-3-yl)-5-methylpyrimidin-2-amine]"
6,0.023,"COc1cc(N2CCC(N(C)C)CC2)ccc1Nc1ncc(Cl)c(-c2c[nH]c3ccccc23)n1 [Example 12, 5-Chloro-N-(4-(4-(dimethylamino)piperidin-1-yl)-2-methoxyphenyl)-4-(1H-indol-3-yl)pyrimidin-2-amine]"
7,0.05,"COc1cc(N2CCC(N(C)C)CC2)ccc1Nc1ncc(F)c(-c2c[nH]c3ccccc23)n1 [Example 13, N-(4-(4-(Dimethylamino)piperidin-1-yl)-2-methoxyphenyl)-5-fluoro-4-(1H-indol-3-yl)pyrimidin-2-amine]"
8,0.144,"COc1cc(N2CCC(N3CCN(C)CC3)CC2)c(C)cc1Nc1ncc(C)c(-c2c[nH]c3ccccc23)n1 [Example 15, 4-(1H-Indol-3-yl)-N-(2-methoxy-5-methyl-4-(4-(4-methylpiperazin-1-yl)piperidin-1-yl)phenyl)-5-methylpyrimidin-2-amine]"
9,0.019,"COc1cc(N2CCC(N(C)C)CC2)c(C)cc1Nc1ncc(Cl)c(-c2c[nH]c3ccccc23)n1 [Example 16, 5-Chloro-N-(4-(4-(dimethylamino)piperidin-1-yl)-2-methoxy-5-methylphenyl)-4-(1H-indol-3-yl)pyrimidin-2-amine]"
10,0.047,"COc1cc(N2CCC(N(C)C)CC2)c(C)cc1Nc1ncc(C)c(-c2c[nH]c3ccccc23)n1 [Example 17, N-(4-(4-(Dimethylamino)piperidin-1-yl)-2-methoxy-5-methylphenyl)-4-(1H-indol-3-yl)-5-methylpyrimidin-2-amine]"
11,0.235,"COc1cc(N2CCC(N3CCN(S(C)(=O)=O)CC3)CC2)ccc1Nc1ncc(Cl)c(-c2c[nH]c3ccccc23)n1 [Example 21, 5-Chloro-4-(1H-indol-3-yl)-N-(2-methoxy-4-{4-[4-(methylsulfonyl)piperazin-1-yl]piperidin-1-yl}phenyl)pyrimidin-2-amine]"
12,0.057,"COc1cc(N2CCC(N3CC[C@@H](F)C3)CC2)ccc1Nc1ncc(Cl)c(-c2c[nH]c3ccccc23)n1 [Example 22, 5-Chloro-N-(4-{4-[(3R)-3-fluoropyrrolidin-1-yl]piperidin-1-yl}-2-methoxyphenyl)-4-(1H-indol-3-yl)pyrimidin-2-amine]"
13,0.028,"COc1cc(N2CCC(N3CCN(C(C)C)CC3)CC2)ccc1Nc1ncc(Cl)c(-c2c[nH]c3ccccc23)n1 [Example 23, 5-Chloro-4-(1H-indol-3-yl)-N-(4-(4-(4-isopropylpiperazin-1-yl)piperidin-1-yl)-2-methoxyphenyl)pyrimidin-2-amine]"

# Continued, compound first:
row,Structure (SMILES),IC50 [µM]
1,"COc1cc(N2CCC(N3CCNCC3)CC2)ccc1Nc1ncc(Cl)c(-c2c[nH]c3ccccc23)n1 [Example 3, 5-Chloro-4-(1H-indol-3-yl)-N-(2-methoxy-4-(4-(piperazin-1-yl)piperidin-1-yl)phenyl)pyrimidin-2-amine]",0.07
2,"COc1cc(N2CCC(N3CCN(C)CC3)CC2)ccc1Nc1ncc(F)c(-c2c[nH]c3ccccc23)n1 [Example 7, 5-Fluoro-4-(1H-Indol-3-yl)-N-(2-methoxy-4-(4-(4-methylpiperazin-1-yl)piperidin-1-yl)phenyl)pyrimidin-2-amine]",0.041
3,"COc1cc(N2CCC(N3CCN(C)CC3)CC2)ccc1Nc1ncc(C(F)(F)F)c(-c2c[nH]c3ccccc23)n1 [Example 8, 4-(1H-Indol-3-yl)-N-(2-methoxy-4-(4-(4-methylpiperazin-1-yl)piperidin-1-yl)phenyl)-5-(trifluoromethyl)pyrimidin-2-amine]",0.061
4,"COc1cc(N2CCC(N3CCN(C)CC3)CC2)c(C)cc1Nc1ncc(Cl)c(-c2c[nH]c3ccccc23)n1 [Example 14, 5-Chloro-4-(1H-indol-3-yl)-N-(2-methoxy-5-methyl-4-(4-(4-methylpiperazin-1-yl)piperidin-1-yl)phenyl)pyrimidin-2-amine]",0.024
5,"COc1cc(N2CCC(N)CC2)c(C)cc1Nc1ncc(Cl)c(-c2c[nH]c3ccccc23)n1 [Example 18, N-(4-(4-Aminopiperidin-1-yl)-2-methoxy-5-methylphenyl)-5-chloro-4-(1H-indol-3-yl)pyrimidin-2-amine]",0.027
6,"COc1cc(N2CCC(N)CC2)c(C)cc1Nc1ncc(C)c(-c2c[nH]c3ccccc23)n1 [Example 19, N-(4-(4-aminopiperidin-1-yl)-2-methoxy-5-methylphenyl)-4-(1H-indol-3-yl)-5-methylpyrimidin-2-amine]",0.052
7,"COc1cc(N2CCC(NCCO)CC2)ccc1Nc1ncc(Cl)c(-c2c[nH]c3ccccc23)n1 [Example 20, 2-(1-(4-(5-Chloro-4-(1H-indol-3-yl)pyrimidin-2-ylamino)-3-methoxyphenyl)piperidin-4-ylamino)ethanol]",0.029

# From US8461170B2, “Chemical compounds” (Astrazeneca AB, priority 2010, dated 2013)
